Experimental data published in US20240139129A1, “NOVEL METHOD AND AGENT FOR TREATING, DIAGNOSING AND DETECTING DIABETES AND COMPLICATIONS” (Biozipcode, Inc., priority 2021, published 2024).

Test system: diabetic patients (type 1 and type 2 diabetes mellitus)
Assay: Research Plan 2: therapy of diabetes mellitus targeting bone marrow-derived abnormal hematopoietic stem cell in patients
Format: in vivo, human
Conditions: type 1 and type 2 diabetic patients, 12 weeks therapy

insulin: insulin therapy alone for three months (control group) in the human research plan
(A) effect of eliminating abnormal hematopoietic stem cells: not eliminated | (B) effect of healing diabetes mellitus: not observed | (C) therapeutic effect on a complication: observed to some extent
